This passage reports Kd and IC50 results from US10087187B2, “Imidazopyridazine derivatives as PI3KB inhibitors” (Janssen Pharmaceutica NV, priority 2014, dated 2018).

Some results are limits rather than exact numbers.

The target of test [1] is PIK3Cδ_h (Homo sapiens (Human), UniProt O00329). The experiment in a line: KINOMEscan enzyme binding assay, PIK3Cδ. Conditions: DiscoveRx. The method, then:
(§1) Enzyme Binding Assays (KINOMEscan®) Kinase enzyme binding affinities of compounds disclosed herein were determined using the KINOMEscan technology performed by DiscoveRx Corporation, San Diego, Calif., USA (www.kinomescan.com). Table A reports the obtained Kd values (nM), with the Kd being the inhibitor binding constant: […]

For test [2], the system named is Akt phosphorylated at Thr308 in PC-3 cells. The experiment in a line: Cellular assay: phosphorylation of Akt (Thr308) in PC-3 cells, MSD ELISA. The format is cell-based. To be noted: Homo sapiens, PC-3, 1 h, 60 min incubation with compound, read-out: IC50 pAkt_Thr308. As to the method:
(§2) Cellular activity of PI3Kβ inhibitors was determined by quantifying the phosphorylation of Akt in PC-3 cells. Akt phosphorylated at Ser473 and Thr308 were measured using an enzyme-linked immunosorbent assay (ELISA; Meso Scale Discovery (MSD), Gaithersburg, Md.) and specific primary antibodies from MSD.
(§3) On day 1, PC3 cells (ATCC # […]) were seeded into PerkinElmer MW96 plates at 25.000 cells per well, in 75 μl complete culture medium (DMEM (Dulbecco's Modified Eagle's Medium) high glucose, AQmedia™, D0819, Sigma-Aldrich) containing 10% heat inactivated FCS (Fetal Bovine Serum) and incubated at 37° C., 5% CO2 during 24 hours. On day 2, compound or DMSO (dimethyl sulfoxide) (0.3%) was added and cells were further incubated for 60 min at 37° C., 5% CO2 in a total volume of 100 μl of medium.
(§4) The phosphoprotein assay was executed according to vendor instructions in the Phospho-Akt (Ser473) Assay Whole Cell Lysate Kit (MSD # K15100D-3) and the Phospho-Akt (Thr308) Assay Whole Cell Lysate Kit (MSD # K151DYD-3) using the lysis, blocking and wash buffer provided.
(§5) Briefly, at the end of the cell treatment period, media were removed by aspiration and adherent cells were lysed in 50 μl ice-cold lysis buffer. MSD plates are supplied pre-coated with capture antibodies for Phospho-Akt (Ser473 and Thr308). After blocking, lysates from tissue culture plates were added and plates were washed. Then, a solution containing the detection antibody (anti-total Akt conjugated with an electrochemiluminescent compound-MSD Sulfo-tag label) was added. The signals were detected using an MSD SECTOR Imager 6000 and are proportional to the phospho-Akt titres.
(§6) Data were processed. The percentage of inhibition was plotted against the log concentration of test compounds, and the sigmoidal log concentration-effect curve of best fit was calculated by nonlinear regression analysis. From these concentration-response curves, the IC50 values were calculated. Five concentrations were used for curve fitting.
A general note: ELISA stands for enzyme-linked immunosorbent assay.

The target of test [3] is PIK3Cβ_h (Homo sapiens (Human), UniProt P42338). The experiment in a line: KINOMEscan enzyme binding assay, PIK3Cβ. To be noted: DiscoveRx. As to the method: as §1
PIK3Cβ_h, sequence (P42338 whole entry): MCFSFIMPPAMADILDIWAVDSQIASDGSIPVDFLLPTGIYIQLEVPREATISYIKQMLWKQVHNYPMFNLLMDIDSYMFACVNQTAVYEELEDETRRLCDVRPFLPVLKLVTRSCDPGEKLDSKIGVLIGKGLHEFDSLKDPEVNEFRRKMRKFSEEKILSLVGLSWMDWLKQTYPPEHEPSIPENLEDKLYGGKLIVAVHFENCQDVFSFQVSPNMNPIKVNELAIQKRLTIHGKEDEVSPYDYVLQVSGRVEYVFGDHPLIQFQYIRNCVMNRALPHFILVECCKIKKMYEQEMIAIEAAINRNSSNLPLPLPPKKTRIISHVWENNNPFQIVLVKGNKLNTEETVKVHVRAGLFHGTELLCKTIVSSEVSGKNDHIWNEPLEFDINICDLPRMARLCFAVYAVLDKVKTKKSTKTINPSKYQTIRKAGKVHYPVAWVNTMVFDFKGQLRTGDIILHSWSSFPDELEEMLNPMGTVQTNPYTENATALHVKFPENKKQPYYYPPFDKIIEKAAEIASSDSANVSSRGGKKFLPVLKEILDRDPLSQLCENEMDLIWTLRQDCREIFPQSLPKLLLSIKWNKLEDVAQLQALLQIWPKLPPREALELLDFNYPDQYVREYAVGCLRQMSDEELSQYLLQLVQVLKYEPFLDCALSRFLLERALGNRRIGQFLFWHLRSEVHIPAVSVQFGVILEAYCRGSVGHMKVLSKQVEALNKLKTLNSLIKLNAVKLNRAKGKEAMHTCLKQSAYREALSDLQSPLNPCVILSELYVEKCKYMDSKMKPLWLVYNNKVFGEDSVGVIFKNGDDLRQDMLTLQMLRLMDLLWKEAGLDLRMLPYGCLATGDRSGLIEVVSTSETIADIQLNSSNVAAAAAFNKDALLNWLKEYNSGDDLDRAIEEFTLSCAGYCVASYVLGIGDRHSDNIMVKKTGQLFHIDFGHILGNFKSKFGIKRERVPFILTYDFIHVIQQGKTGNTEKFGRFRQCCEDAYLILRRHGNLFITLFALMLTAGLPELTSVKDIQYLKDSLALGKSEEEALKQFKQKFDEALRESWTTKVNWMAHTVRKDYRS
Test [4] deals with Akt phosphorylated at Ser473 in PC-3 cells. The experiment in a line: Cellular assay: phosphorylation of Akt (Ser473) in PC-3 cells, MSD ELISA. The format is cell-based. Conditions: Homo sapiens, PC-3, 1 h, 60 min incubation with compound, read-out: IC50 pAkt_S473. As to the method:
as §2, §3, §4, §5, §6

In test [5] the target is MTOR_h (Homo sapiens (Human), UniProt P42345). The experiment in a line: KINOMEscan enzyme binding assay, MTOR. Conditions: DiscoveRx. The method, then: (§7) Enzyme Binding Assays (KINOMEscan®) Kinase enzyme binding affinities of compounds disclosed herein were determined using the KINOMEscan technology performed by DiscoveRx Corporation, San Diego, Calif., USA (www.kinomescan.com).

For test [6], the target named is PIK3Cγ_h (Homo sapiens (Human), UniProt P48736). The experiment in a line: KINOMEscan enzyme binding assay, PIK3Cγ. To be noted: DiscoveRx. As to the method: as §7
PIK3Cγ_h, sequence (P48736 whole entry): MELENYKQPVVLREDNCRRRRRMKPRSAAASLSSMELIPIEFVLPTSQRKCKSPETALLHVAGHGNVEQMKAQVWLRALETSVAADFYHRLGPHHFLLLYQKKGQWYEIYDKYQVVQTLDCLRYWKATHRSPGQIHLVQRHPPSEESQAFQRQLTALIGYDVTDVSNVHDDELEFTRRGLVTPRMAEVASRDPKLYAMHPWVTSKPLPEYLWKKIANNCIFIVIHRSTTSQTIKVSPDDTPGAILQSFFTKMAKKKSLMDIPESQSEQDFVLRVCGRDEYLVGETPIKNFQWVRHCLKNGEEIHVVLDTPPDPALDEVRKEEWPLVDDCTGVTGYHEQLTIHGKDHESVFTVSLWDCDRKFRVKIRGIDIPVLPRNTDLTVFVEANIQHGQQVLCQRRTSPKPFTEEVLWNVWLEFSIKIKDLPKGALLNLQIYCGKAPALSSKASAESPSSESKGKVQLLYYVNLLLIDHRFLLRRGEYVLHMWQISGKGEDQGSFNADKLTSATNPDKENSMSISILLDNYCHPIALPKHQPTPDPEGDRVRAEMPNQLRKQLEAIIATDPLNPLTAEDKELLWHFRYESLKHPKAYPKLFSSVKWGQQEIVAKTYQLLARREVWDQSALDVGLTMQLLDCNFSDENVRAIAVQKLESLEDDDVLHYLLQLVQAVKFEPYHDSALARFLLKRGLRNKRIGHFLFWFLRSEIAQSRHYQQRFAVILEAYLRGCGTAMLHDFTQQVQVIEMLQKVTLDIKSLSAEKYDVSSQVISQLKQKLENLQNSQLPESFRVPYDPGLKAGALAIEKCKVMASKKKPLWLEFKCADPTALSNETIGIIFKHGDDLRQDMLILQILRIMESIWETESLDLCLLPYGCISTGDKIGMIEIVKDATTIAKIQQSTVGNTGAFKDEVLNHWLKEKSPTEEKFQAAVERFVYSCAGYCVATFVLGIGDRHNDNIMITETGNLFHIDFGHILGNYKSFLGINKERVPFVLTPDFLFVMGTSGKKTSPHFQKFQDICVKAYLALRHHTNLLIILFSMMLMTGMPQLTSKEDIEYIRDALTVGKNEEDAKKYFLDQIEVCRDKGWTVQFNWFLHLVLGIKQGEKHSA
The target in test [7] is PIK3Cα_h (Homo sapiens (Human), UniProt P42336). The experiment in a line: KINOMEscan enzyme binding assay, PIK3Cα. Conditions: DiscoveRx. As to the method: as §7
PIK3Cα_h, sequence (P42336 whole entry): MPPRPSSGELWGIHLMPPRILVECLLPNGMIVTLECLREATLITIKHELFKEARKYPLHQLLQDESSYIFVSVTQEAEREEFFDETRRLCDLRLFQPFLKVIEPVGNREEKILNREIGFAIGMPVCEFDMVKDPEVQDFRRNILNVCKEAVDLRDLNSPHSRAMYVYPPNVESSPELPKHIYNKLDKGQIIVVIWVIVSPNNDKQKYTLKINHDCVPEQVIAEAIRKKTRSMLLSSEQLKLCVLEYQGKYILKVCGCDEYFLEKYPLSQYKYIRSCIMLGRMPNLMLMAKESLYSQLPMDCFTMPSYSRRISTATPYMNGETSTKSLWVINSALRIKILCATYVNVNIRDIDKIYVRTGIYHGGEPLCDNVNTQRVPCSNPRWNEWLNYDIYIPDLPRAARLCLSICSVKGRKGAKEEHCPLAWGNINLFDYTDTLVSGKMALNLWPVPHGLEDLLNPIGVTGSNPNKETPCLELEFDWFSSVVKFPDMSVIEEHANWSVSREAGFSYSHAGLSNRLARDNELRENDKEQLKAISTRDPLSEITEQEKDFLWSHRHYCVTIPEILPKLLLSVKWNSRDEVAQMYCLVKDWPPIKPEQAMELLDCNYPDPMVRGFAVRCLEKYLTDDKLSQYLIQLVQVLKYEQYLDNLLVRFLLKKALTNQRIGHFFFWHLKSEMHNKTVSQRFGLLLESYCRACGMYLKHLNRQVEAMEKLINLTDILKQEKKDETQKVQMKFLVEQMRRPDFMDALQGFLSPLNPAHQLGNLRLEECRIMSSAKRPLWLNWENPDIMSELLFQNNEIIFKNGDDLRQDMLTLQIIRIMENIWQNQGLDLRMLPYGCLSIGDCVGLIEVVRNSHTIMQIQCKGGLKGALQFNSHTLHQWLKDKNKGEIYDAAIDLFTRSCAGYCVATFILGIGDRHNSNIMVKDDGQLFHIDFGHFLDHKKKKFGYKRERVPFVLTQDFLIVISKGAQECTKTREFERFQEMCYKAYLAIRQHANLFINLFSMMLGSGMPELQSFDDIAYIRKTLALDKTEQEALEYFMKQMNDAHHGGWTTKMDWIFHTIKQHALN

For orientation: Kd means a measure of binding affinity in units of concentration. Usually IC50 stands for the concentration needed to halve the response being measured.

PIK3Cδ_h, sequence (O00329 whole entry): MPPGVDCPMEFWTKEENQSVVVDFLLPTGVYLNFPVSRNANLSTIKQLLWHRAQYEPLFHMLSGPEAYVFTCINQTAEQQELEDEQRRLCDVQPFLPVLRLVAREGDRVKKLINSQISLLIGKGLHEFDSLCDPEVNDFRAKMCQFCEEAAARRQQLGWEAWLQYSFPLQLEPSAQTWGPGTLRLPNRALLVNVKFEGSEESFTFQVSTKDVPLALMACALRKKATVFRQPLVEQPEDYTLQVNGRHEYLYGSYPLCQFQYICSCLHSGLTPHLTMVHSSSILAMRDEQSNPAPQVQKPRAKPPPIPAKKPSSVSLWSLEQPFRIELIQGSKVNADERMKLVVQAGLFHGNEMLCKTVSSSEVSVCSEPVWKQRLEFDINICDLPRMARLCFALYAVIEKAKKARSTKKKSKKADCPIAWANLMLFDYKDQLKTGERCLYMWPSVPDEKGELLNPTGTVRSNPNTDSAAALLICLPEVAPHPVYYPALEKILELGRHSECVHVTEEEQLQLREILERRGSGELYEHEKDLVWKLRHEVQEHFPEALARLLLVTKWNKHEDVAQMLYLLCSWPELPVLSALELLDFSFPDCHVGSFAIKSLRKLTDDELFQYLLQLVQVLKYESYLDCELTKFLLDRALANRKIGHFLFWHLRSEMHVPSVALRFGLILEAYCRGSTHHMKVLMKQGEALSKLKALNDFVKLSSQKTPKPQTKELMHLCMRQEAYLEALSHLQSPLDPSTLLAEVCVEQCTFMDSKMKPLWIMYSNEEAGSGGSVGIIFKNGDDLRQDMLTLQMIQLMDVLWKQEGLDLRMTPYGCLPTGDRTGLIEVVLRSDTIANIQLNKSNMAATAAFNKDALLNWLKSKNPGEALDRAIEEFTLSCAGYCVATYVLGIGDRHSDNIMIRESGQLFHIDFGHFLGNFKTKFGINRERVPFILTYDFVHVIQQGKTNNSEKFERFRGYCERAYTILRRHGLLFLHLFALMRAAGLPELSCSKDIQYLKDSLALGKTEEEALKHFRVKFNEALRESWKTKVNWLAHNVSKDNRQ

Consider `Cc1c(Cl)cccc1Cc1c(CO)nc2c(-c3c[nH]cn3)cc(N3CCOCC3)nn12` [Compound 67], for which the Kd in test [1] is 17 nM; in test [3], 0.5 nM; in test [5] it was 186 nM; in test [6], 324 nM; in test [7], 195 nM. In addition, the results for the IC50 in test [2] and in test [4] were 74 nM and 23 nM, respectively.

For `Cc1nc2c(N)cc(N3CCOCC3)nn2c1Nc1cccc(C(F)(F)F)c1C1CCNCC1` [Compound 59], the Kd in test [1] was 11 nM; in test [3] it was 0.1 nM; in test [5], above 30200 nM; in test [6], 3390 nM; in test [7], 6460 nM. Besides, the IC50 in test [2] was around 60 nM; in test [4], 85 nM.

Take `Cc1cccc(Cc2c(C)nc3c(C(=O)O)cc(N4CCOCC4)nn23)c1C` [Compound 12]: the Kd in test [1] was 69 nM; in test [3], below 1.5 nM; in test [5] it was 9330 nM; in test [6], 6170 nM; in test [7] it was 1070 nM. Besides, the IC50 in test [2] was around 151 nM; in test [4], around 316 nM.

On to `Cc1nc2c(N)cc(N3CCOCC3)nn2c1Nc1cccc(C(F)(F)F)c1CN1CC(S(C)(=O)=O)C1` [Compound 48], for which the Kd in test [1] is 34 nM; in test [3], 1.7 nM; in test [5], above 30200 nM; in test [6] it was 6170 nM; in test [7], 2750 nM. Besides, the IC50 in test [2] came to 55 nM; in test [4], 98 nM.

In the case of `Cc1c(Cc2c(CNCCO)nc3c(N)cc(N4CCOCC4)nn23)cccc1C(F)(F)F` [Compound 3], the Kd is 105 nM in test [1]; 1.1 nM in test [3]; 7940 nM in test [5]; 15500 nM in test [6]; 9550 nM in test [7]. Also, the IC50 in test [2] was around 71 nM; in test [4] it was 120 nM.

For the molecule `Cc1cccc(Nc2c(C)nc3c(N)cc(N4CCOCC4)nn23)c1C1CCNCC1` [Compound 60], the Kd in test [1] was 16 nM; in test [3], 0.2 nM; in test [5] it was above 30200 nM; in test [6], 9770 nM; in test [7], 7240 nM. In addition, the IC50 in test [2] is around 148 nM; in test [4], 219 nM.

Turning to `Cc1c(Cc2c(CCO)nc3c(N)cc(N4CCOCC4)nn23)cccc1C(F)(F)F` [Compound 23], the dissociation constant (Kd) in test [1] amounted to 276 nM; in test [3] it was 3 nM; in test [5] it was 20600 nM; in test [6], 23000 nM; in test [7], 20900 nM. The values for the IC50 in test [2] and in test [4] were 49 nM and 64 nM, respectively.

In the case of `Cc1nc2c(-c3cnc[nH]3)cc(N3CCOCC3)nn2c1Nc1cccc2c1CNCC2` [Compound 42], the Kd in test [1] is 5 nM; in test [3], 0.6 nM; in test [5] it was 1440 nM; in test [6] it was 2290 nM; in test [7], 347 nM. The IC50 in test [2] and in test [4] was above 513 nM in each case.

Take `Cc1nc2c(-c3c[nH]cn3)cc(N3CCOCC3)nn2c1Nc1cccc(C(F)(F)F)c1CN1CCN(C)CC1` [Compound 57]: the Kd stood at 9 nM in test [1]; 0.7 nM in test [3]; 6310 nM in test [5]; 891 nM in test [6]; 339 nM in test [7]. The values for the half-maximal inhibitory concentration (IC50) in test [2] and in test [4] were 26 nM and 34 nM, respectively.

Consider `Cc1nc2c(-c3c[nH]cn3)cc(N3CCOCC3)nn2c1Nc1cccc(F)c1C` [Compound 50], for which the Kd is 33 nM in test [1]; 1.3 nM in test [3]; 776 nM in test [5]; 1260 nM in test [6]; 537 nM in test [7]. Also, the IC50 in test [2] worked out at 38 nM; in test [4] it was 60 nM.

In the case of `CC(=O)OCc1nc2c(N)cc(N3CCOCC3)nn2c1Cc1cccc(C(F)(F)F)c1C` [Compound 61], the Kd is 1660 nM in test [1]; 12 nM in test [3]; above 30200 nM in test [5]; above 30200 nM in test [6]; above 30200 nM in test [7]. Besides, the half-inhibitory concentration (IC50) in test [2] amounted to 151 nM; in test [4], 105 nM.

`Cc1c(Cc2c(CO)nc3c(C(=O)O)cc(N4CCOCC4)nn23)cccc1C(F)(F)F` [Compound 22]: the Kd in test [1] is 48 nM; in test [3] it was 1.2 nM; in test [5], 10700 nM; in test [6], above 15100 nM; in test [7] it was 1580 nM. For the same molecule, the IC50 in test [2] and in test [4] was above 513 nM throughout.

Consider `Cc1nc2c(N)cc(N3CCOCC3)nn2c1Nc1cccc(C(F)(F)F)c1CNC(C)CO` (stereo not drawn) [Compound 55], for which the Kd was 9 nM in test [1]; 0.9 nM in test [3]; above 30200 nM in test [5]; 12600 nM in test [6]; 1120 nM in test [7]. Besides, the IC50 in test [2] stood at 7 nM; in test [4], 10 nM.

Take `Cc1c(Cc2c(COC(=O)C(N)C(C)C)nc3c(N)cc(N4CCOCC4)nn23)cccc1C(F)(F)F` (stereo not drawn) [Compound 82]: the Kd in test [1] is 263 nM; in test [3] it was 1.3 nM; in test [5] it was 25100 nM; in test [6] it was above 30200 nM; in test [7], 32400 nM. Moreover, the IC50 in test [2] is around 123 nM; in test [4] it was 380 nM.

Consider `Cc1nc2c(N)cc(N3CCOCC3)nn2c1Cc1cccc(F)c1C1CCNCC1` [Compound 106], for which the dissociation constant (Kd) in test [1] was 372 nM; in test [3], 0.5 nM; in test [5], above 30200 nM; in test [6], 5010 nM; in test [7], 2750 nM. In addition, the IC50 in test [2] amounted to 129 nM; in test [4] it was 174 nM.

In the case of `Cc1nc2c(N)cc(N3CCOCC3)nn2c1Cc1cccc2c1CN(C(C)C)CC2` [Compound 110], the Kd in test [1] is 2380 nM; in test [3] it was 513 nM; in test [5] it was above 30200 nM; in test [6], above 30200 nM; in test [7], above 30200 nM. The values for the IC50 in test [2] and in test [4] were 222 nM and 324 nM, respectively.

For the molecule `Cc1c(Cc2c(CO)nc3c(N)cc(N4CCOCC4)nn23)cccc1C(F)(F)F` [Compound 14c], the Kd in test [1] is 194 nM; in test [3] it was 1.2 nM; in test [5], 5250 nM; in test [6] it was above 30200 nM; in test [7], above 10000 nM. Also, the IC50 in test [2] was around 49 nM; in test [4], 50 nM.

On to `Cc1nc2c(C(=O)O)cc(N3CCOCC3)nn2c1Nc1cccc(C(F)(F)F)c1C` [Compound 36], for which the Kd in test [1] turned out to be 58 nM; in test [3], 0.9 nM; in test [5], 21700 nM; in test [6] it was 4050 nM; in test [7], 669 nM. Besides, the results for the IC50 in test [2] and in test [4] were 195 nM and around 331 nM, respectively.

As for `Cc1nc2c(-c3cnc[nH]3)cc(N3CCOCC3)nn2c1Nc1cccc(C(F)(F)F)c1CN1CCOCC1` [Compound 41], the Kd in test [1] came to 12 nM; in test [3], 7 nM; in test [5], 1700 nM; in test [6], 955 nM; in test [7], 275 nM. The IC50 in test [2] was 22 nM; in test [4] it was around 37 nM.

For `Cc1nc2c(C(=O)O)cc(N3CCOCC3)nn2c1Nc1ccccc1N1CCOCC1` [Compound 86], the Kd is 117 nM in test [1]; 10 nM in test [3]; 19500 nM in test [5]; 13200 nM in test [6]; 1780 nM in test [7]. Also, the IC50 in test [2] and in test [4] was above 513 nM throughout.

On to `Cc1nc2c(N)cc(N3CCOCC3)nn2c1Nc1cccc(C(F)(F)F)c1CN1CC(O)C1` [Compound 52], for which the Kd in test [1] stood at 40 nM; in test [3] it was 1.9 nM; in test [5], 10700 nM; in test [6], 4790 nM; in test [7], 5750 nM. In addition, the IC50 in test [2] stood at 33 nM; in test [4] it was 44 nM.
